Results from patent publication US20080262228A1, “Metabolites of 5-fluoro-8- quinoline and methods of preparation and uses thereof” (Wyeth, priority 2006, published 2008).
Where a name gives a salt, the structure may show the parent alone. Values belong to the compound of their own block, whether it stands above or below them.

What was measured:
[1] = Metabolite profiling in liver microsomes and S9; assay type: in vitro ADME, rat, dog, monkey, human; conditions: liver microsomes and S9, 10 μM COMPOUND I, 30 min; species letters not defined
Description: Microsomal incubations for metabolite profiling were similar to those described above for intrinsic clearance determination (see Table 1). Aliquots of COMPOUND I (10 μL), dissolved in DMSO:methanol (1:9), were added to a 96-well plate containing phosphate buffer, and MgCl2 and the liver microsomes at 37° C. using the same automation apparatus as for the stability study described hereinabove. The reactions were initiated by the addition of the UDPGA and NADPH generating system. The final incubation volume for all samples was 1 mL and the length of incubation was 30 min. […] Three 250 μL aliquots were transferred to a 96-well plate containing 900 μL acetonitrile to precipitate the protein. […] The samples were then reconstituted in 150 μL of 20% methanol in water. The three aliquots for each sample were pooled and analyzed by LC/MS.
S9 incubation buffer and cofactors were chosen to allow N-acetylation and carbamoyl glucuronidation in addition to oxidative and glucuronidation pathways possible in liver microsomes. Incubations of sulfamethazine and SCA-136 with liver S9 were used as positive controls for N-acetylation and carbamoyl glucuronidation, respectively. Following a 30 min. incubation, 750 μL from each sample were added to 900 μL acetonitrile. Following centrifugation and evaporation of the supernatant, the samples were reconstituted in 450 μL of 20% methanol in water for analysis by HPLC/UV and LC/MS (see below).
The HPLC system used for mass spectrometric analysis was an Agilent 1100 HPLC (Agilent Technologies, Palo Alto, Calif.) equipped with a binary pump and a diode array UV detector. The UV detector was set to monitor 190-400 nm. Separations were accomplished on a Luna C18 column (150×2.1 mm, 5 μm) (Phenomenex Incorporated, Torrance, Calif.).
The mass spectrometer used for metabolite characterization was a Finnigan LCQ Deca ion trap mass spectrometer (Thermo Electron Corp.). […] Full scan and data dependent MS2 and MS3 mass spectra were recorded. Finnigan Xcalibur software (version 1.3) was used for control of equipment and recording of data from UV and LC/MS analyses.
Chromatographic profiles of COMPOUND I (10 μM) metabolites in incubations with liver microsomes in the presence of NADPH are presented in FIG. 1. Chromatographic profiles of COMPOUND I (10 μM) metabolites in incubations with liver microsomes in the presence of NADPH and UDPGA are presented in FIG. 2. Chromatographic profiles of COMPOUND I (10 μM) metabolites in incubations with liver S9 in the presence of NADPH, UDPGA and acetyl coenzyme A (CoA) are presented in FIG. 3. In incubations containing NADPH, UDPGA and acetyl CoA, fourteen Phase I metabolites (M1, M6, M8, M12, M13, M14, M15, M16, M17, M18, M20, M21, M22 and M23) and six Phase II metabolites (M2, M3, M5, M7, M9 and M10) were observed. In incubations without cofactors, no metabolites were observed.
LC/MS analysis was conducted on extracts of mouse, rat, monkey and human liver microsomes and S9. The mass spectral data for the characterized COMPOUND I metabolites are discussed below.

[2] = In vivo metabolism of [14C]COMPOUND I in Sprague-Dawley rats, single oral 5 mg/kg dose; parameters: species or system rat; conditions: for Chromatographic Distribution of Radioactivity in Pooled Plasma Samples: 5 mg/kg oral [14C]COMPOUND I
Description: Dose preparation, animal dosing, and specimen collection were performed at Wyeth Research, Collegeville, Pa. The vehicle contained 2% (w/v) polysorbate 80, NF and 0.5% (w/v) methylcellulose (4000 cps) in water. [^14C]COMPOUND I trisuccinate salt (36.6 mg) and non-labeled COMPOUND I trisuccinate salt (26.7 mg) were dissolved in 1 mL of ethanol and suspended in 35 mL of the vehicle with stirring. The target [^14C]COMPOUND I concentration was approximately 1 mg/mL as free base and 70 μCi/mL with a target specific activity of 70 μCi/mg. Three pre- and post-dose aliquots (100 μL) were taken for the determination of radiochemical purity, drug and radioactivity concentrations and specific activity (see below).
Male rats weighing from 323 to 354 g and female rats weighing from 270 to 317 g at the time of dosing were purchased from Charles River Laboratories (Wilmington, Mass.). Non-fasted rats were given a single 5 mg/kg (˜350 μCi/kg) dose of [^14C]COMPOUND I at a volume of 5.0 mL/kg via intragastric gavage. Three rats were dosed for each time point. Animals were provided Purina rat chow and water ad libitum, and were kept individually in metabolism cages.
Blood samples were collected at 1, 3, 6 and 24 hr from male rats and at 1 and 3 hr from female rats after dose administration by cardiac puncture into tubes containing EDTA as the anticoagulant and placing them on ice. Triplicate aliquots (50 μL) of whole blood were removed and plasma was immediately obtained from the remaining blood by centrifugation at 4° C. Whole brain samples were collected after saline perfusion at 1, 3, 6 and 24 hr post-dose from male rats and at 1 and 3 hr post-dose from female rats. Urine samples were collected on dry ice from male rats at intervals of 0-6 and 6-24 hr post-dose. Feces were collected from male rats at 0-24 hr post-dose at room temperature. The biological specimens and aliquots of the dose suspension were stored at approximately −70° C. until analysis.
Triplicate aliquots of diluted dose (20 μL), dose fractions (10 μL), and plasma (50 μL) and urine (100 μL) from individual rats were analyzed for radioactivity concentrations. Radioactivity determinations were made with a Tri-Carb Model 3100 TR liquid scintillation counter (LSC) (Perkin Elmer) using 5 mL of Ultima Gold as the scintillation fluid.
Brain and fecal samples from individual rats were weighed and homogenized in water at a volume-to-weight ratio of about 3:1 and 5:1, respectively, with a Polytron PT homogenizer at ice-cold temperature. Duplicate aliquots of blood (50 μL), brain homogenates (0.2 g) and fecal homogenates (0.2 g) were placed on Combusto-cones with Combusto-pads and allowed to dry overnight. Samples were combusted with a model 307 Tri-Carb Sample Oxidizer, equipped with an Oximate-80 Robotic Automatic Sampler (Perkin Elmer). The liberated ^14CO2 was trapped with Carbo-Sorb E carbon dioxide absorber, mixed with PermaFluor® E^+ liquid scintillation cocktail, and counted in a Tri-Carb Model 3100 TR/LL liquid scintillation counter (Perkin Elmer).
Plasma samples were pooled by equal volumes from three animals at each time point (1, 3, 6 and 24 hr for males; 1 and 3 hr for females). Aliquots of 2 mL of pooled plasma were mixed with 2 mL of acetonitrile, placed on ice for about 10 min, and then centrifuged at 4° C. The supernatant was transferred to a clean tube. The protein pellets were extracted two more times with 4 mL of acetonitrile. The supernatants from precipitation and extraction of each sample were pooled, mixed, and evaporated at 22° C. under nitrogen in a TurboVap LV evaporator (Caliper Life Sciences, Hopkinton, Mass.) to about 1.0 mL. The concentrated extract was centrifuged, the supernatant volume measured and the extraction efficiency was determined by analyzing duplicate 10 μL aliquots for radioactivity concentrations.

[3] = In vivo metabolism and excretion of [14C]COMPOUND I in male beagle dogs, single oral 3 mg/kg dose; parameters: species or system dog; conditions: 3 mg/kg oral
Description: Dose preparation, animal dosing, and specimen collection were performed at Wyeth Research, Collegeville, Pa. The vehicle contained 2% (w/v) polysorbate 80, NF and 0.5% (w/v) methylcellulose (4000 cps) in water. [^14C]COMPOUND I trisuccinate salt (50.25 mg) and non-labeled COMPOUND I trisuccinate salt (331.9 mg) were suspended in 72 mL of the vehicle by grinding with a mortar and a pestle. The target [^14C]COMPOUND I concentration was approximately 3 mg/mL as free base and 48 μCi/mL with a target specific activity of 16 μCi/mg. Three pre- and post-dose aliquots (100 μL) were taken for the determination of radiochemical purity, drug and radioactivity concentrations and specific activity (see below).
Four male beagle dogs, weighing from 9.4 to 11.5 kg at the time of dosing, were from an in-house colony. Non-fasted dogs were given a single 3 mg/kg (approximately 48 μCi/kg) dose of [^14C]COMPOUND I at a volume of 1 mL/kg via intragastric gavage. Animals were provided Purina dog chow and water ad libitum, and were housed individually in metabolic cages.
Blood samples were collected from the jugular vein at 1, 4, 8, 24, 48, 72 and 120 hr after dose administration into tubes containing potassium EDTA as the anticoagulant and then placed on ice. Aliquots of 200 μL were removed and plasma was harvested immediately from the remaining blood by centrifugation at 4° C. Urine samples were collected into tubes on dry ice from 0-24 and 24-48 hr, and then at ambient temperature at 24 hr intervals for 7 days post-dose. Fecal samples were collected at 24 hr intervals for 7 days post-dose at room temperature. Cage rinses were collected daily by rinsing each cage with approximately 500 mL of 30% ethanol in water. The dose aliquots and biological specimens were stored at approximately −70° C. until analysis.
Triplicate aliquots of diluted dose (20 μL), dose fractions (10 μL) and plasma (50 μL), urine (200 μL) and cage wash (500 μL) from individual dogs were analyzed for radioactivity content. The samples were assayed in a Tri-Carb Model 3100TR liquid scintillation counter (Perkin Elmer) using 5 mL of Ultima Gold scintillation cocktail.
Fecal samples from individual dogs were weighed and homogenized in water at a volume-to-weight ratio of about 4:1 with a Silverson sealed-unit homogenizer at ambient temperature. Triplicate aliquots of whole blood (50 μL) and fecal homogenates (approximately 0.2 g) were placed into Combusto-cones with Combusto-pads and allowed to dry overnight. Samples were combusted with a model 307 Tri-Carb Sample Oxidizer, equipped with an Oximate-80 Robotic Automatic Sampler (Perkin Elmer). The liberated ^14CO2 was trapped with Carbo-Sorb® E carbon dioxide absorber, mixed with PermaFluor® E+liquid scintillation cocktail, and counted in a Tri-Carb Model 3100 TR/LL liquid scintillation counter.
Plasma samples were pooled by mixing equal volumes from four animals at each time point (1, 4, 8 and 24 hr). Aliquots of 2.0 mL of pooled plasma were mixed with 2.0 mL of acetonitrile, placed on ice for about 10 min, and then centrifuged at 4° C. The supernatant was transferred to a clean tube. The protein pellets were extracted two more times with 2.0 mL of acetonitrile. The supernatants from precipitation and extraction of each sample were pooled, mixed, and evaporated at 22° C. under nitrogen in a TurboVap LV evaporator (Caliper Life Sciences, Hopkinton, Mass.) to about 0.8 mL. The concentrated extract was centrifuged, the supernatant volume measured and the extraction efficiency was determined by analyzing duplicate 10 μL aliquots for radioactivity concentrations. For metabolite profiling, an aliquot of the supernatant (200 μL) was injected onto the HPLC column as described hereinbelow, and fractions were collected at 20 second intervals into 96-well Lumaplates (Perkin Elmer).

[4] = Turnover to metabolites in cryopreserved hepatocytes; conditions: 100 μM, 1 hr
Description: Chromatographic analyses were performed with a Waters Alliance model 2695 HPLC system (Waters Corp., Milford, Mass.) that was equipped with a built-in autosampler. The column eluent was monitored with a model 996 diode array UV detector, set to monitor 250 nm, and a FloOne β Model A525 radioactivity flow detector (Perkin Elmer) with a 250 μL flow cell. Separation of the parent compound from metabolites was accomplished using a Discovery C18 column, 250×4.6 mm, 5 μm (Supelco, Bellefonte, Pa.) at an ambient temperature of approximately 20° C. Mobile phase A was 10 mM ammonium acetate (pH 4.5) and mobile phase B was acetonitrile and they were delivered at 1 mL/min using the gradient described in Table 10. The Ultima Flo M scintillant flow rate was 3 mL/min.
Flo-One analytical software (version 3.65) was utilized to integrate the radioactive peaks. Means and standard deviations were calculated using Microsoft Excel® 2000. Micromass MassLynx software (version 4.0, Waters Corp.) was used for control of LC/MS equipment and recording of data from LC/MS analyses.

Compound: O=C(O)C1OC(Oc2cc(N3CCN(C4CCN(c5ccc(F)c6cccnc56)CC4)CC3)c3ncccc3c2)C(O)C(O)C1O (stereo not shown) [Metabolite M11, O-Desmethyl COMPOUND I glucuronide]
Chromatographic Distribution of Radioactivity in Pooled Plasma Samples ([2]; female rats, 1 hr): 56.8% | Chromatographic Distribution of Radioactivity in Pooled Plasma Samples ([2]; female rats, 3 hr): 48.2% | percent of total plasma radioactivity ([2]; male and female rats, range over time points, 5 mg/kg oral): 41.3-56.8% | Chromatographic Distribution of Radioactivity in Pooled Plasma Samples ([2]; male rats, 1 hr): 52.9% | Chromatographic Distribution of Radioactivity in Pooled Plasma Samples ([2]; male rats, 3 hr): 43.1% | Chromatographic Distribution of Radioactivity in Pooled Plasma Samples ([2]; male rats, 6 hr): 41.3%

Compound: O=C1C=C(N2CCN(C3CCN(c4ccc(F)c5cccnc45)CC3)CC2)c2ncccc2C1=O [Metabolite M23, Desmethyl COMPOUND I quinone]
Species (in which the metabolite was characterized) [1]: R, D, M, H

Compound: O=S(=O)(O)Oc1cc(N2CCN(C3CCN(c4ccc(F)c5cccnc45)CC3)CC2)c2ncccc2c1 [Metabolite M24, O-Desmethyl COMPOUND I sulfate]
Source ([3]; P, plasma, F, feces): P, F | percent of total fecal radioactivity ([3]; pooled 0-24 hr fecal sample): 4.6% | percent of total fecal radioactivity ([3]; pooled 24-48 hr fecal sample): 19.3%

Compound: [^14C]7-Ethoxycoumarin [reference compound]
turnover (positive control) ([4]; dog hepatocytes): 9% | turnover (positive control) ([4]; human hepatocytes): 6% | turnover (positive control) ([4]; rat hepatocytes): 10%

Second part, the compound after the results:

Species (in which the metabolite was characterized) [1]: R, D, M, H
Compound: COC1=CC(=O)c2ncccc2C1=O [Metabolite M1, 6-Methoxy-quinoline-5,8-dione]

Species (in which the metabolite was characterized) [1]: R, M, H
Compound: COc1cc(N2CCN(C3CCN(C4=CC(=O)C(=O)c5cccnc54)CC3)CC2)c2ncccc2c1 [Metabolite M16, Desfluoro COMPOUND I quinone]

Species (in which the metabolite was characterized) [1]: R, D, M, H
Compound: Methoxyquinolinyl-piperazine [Metabolite P1]
